In paper PMC5325326, “Evaluation of the intestinal permeability of rosemary (Rosmarinus officinalis L.) extract polyphenols and terpenoids in Caco-2 cell monolayers” (PLoS ONE, 2017):
Entries after “also recorded” stand apart in the source; their conditions may differ. Like-named read-outs stand apart in the source and are kept apart here.

Tests used:
[1] = BCS classification based on experimental Papp (AB direction, free formulation); assay type: in vitro ADME; set-up: dose or concentration left out as unconfirmed; conditions: human, Caco-2, pH 7.4, versus metoprolol Papp, Table 2, read-out: Permeability Based on Papp
From the text: The Biopharmaceutical Classification System (BCS) was developed by Amidon and coworkers twenty years ago to classify drugs for a waiver of in vivo bioequivalence studies. This system classifies drugs into four categories based on their intestinal permeability and solubility (see S1 Table), and currently this system is accepted worldwide by researchers and governmental institutions such as the FDA and EMA. In addition to its regulatory use, BCS is a tool for drug development because it helps identify the limiting factors in the absorption process. In this work, the 24 compounds identified from RE were classified individually according to this system to obtain relevant information regarding their absorbed oral fraction. For this purpose, only data derived from the free extract permeation were used.
Log P values were obtained for all compounds using ChemDraw software® Ultra version 8.0 (CambridgeSoft Corp. USA) and are shown in Table 2. The Log P value is a widely accepted parameter to express the lipophilicities of biological drugs in medicinal and agro chemistry. According to BCS, compounds are divided into high permeability (Class I: high permeability, high solubility; Class II: high permeability, low solubility) or low permeability (Class III: low permeability, high solubility; Class IV: low permeability, low solubility) categories by comparing with the Log P value (2.18) of the standard metoprolol, which is the reference compound employed for this purpose. Based on this parameter, the permeabilities of all compounds derived from RE were tabulated as high or low (Table 2). Moreover, the Papp value of this reference drug (0.6 x 10^−4 cm/s) was also available, which allowed us to establish another classification for the permeabilities of RE compounds based on this parameter, using the Papp values of the compounds obtained in the AB direction only for the free formulations (Table 2). Therefore, the Log P and Papp values were used in Table 2 to classify compounds as […] drugs for permeability, providing two different classifications based on the partition coefficient and the intestinal permeability.
As no information was available regarding the maximum doses of these compounds, two putative scenarios were selected to simulate a high-activity drug, dosed as a 10-mg tablet, or a low-activity drug, dosed as a 100-mg tablet. […] In the present study, all compounds were classified for BCS by considering the experimental data for absorption (Papp) and the calculated Log P value (Table 2). According to the Log P value, most compounds belong to the high-permeability classes (I and II), with class II being the most numerous (Fig 2A), except in the case of the flavonoids. However, when experimental Papp values were used for classification, the results changed dramatically, and low-permeability classes (III and IV) became the most abundant (Fig 2B). This classification was nearly independent of the solubility scenario and considered dose (compare Fig 2 and S1 Fig). […] Most flavones in RE were classified as class III (low permeability, high solubility) and class IV (low permeability, low solubility) with the exception of apigenin, for which no experimental Papp could be determined and, consequently, no BCS classification was proposed. […] The phenylpropanoid derivatives shogaol and shogaol isomer (gingerol-like compounds) were classified as class II (high permeability, low solubility), which is in agreement with the presence of a long saturated carbon chain in their structure that confers a certain degree of hydrophobicity to these compounds.

[2] = Caco-2 monolayer transport study (apparent permeability, Papp) of rosemary extract compounds; conditions: human, Caco-2, pH 7.4
Caco-2 cell monolayers [3] = tested on: Caco-2 cell monolayers
in vitro = conditions: human, Caco-2, pH 7.4
Caco-2 cell monolayers [4] = experiment: Caco-2 monolayer transport study (apparent permeability, Papp) of rosemary extract compounds; conditions: for Papp, Encapsulated RE, AB direction: liposomal RE formulation; for Papp, Encapsulated RE, AB direction / Papp, Non encapsulated RE, AB direction: apical to basolateral; for retention by Caco-2 cells: free formulation, AB direction
Caco-2 cell monolayers [5] = tested on: Caco-2 cell monolayers; set-up: method as in printed; conditions: reference for BCS permeability class; stated as available, ref not given; cited from earlier work
[6] = 120 min, 37°C, mean of six replicates
[7] = free RE 200 μg/mL, 120 min, 37°C, mean of six replicates

Compound	Papp at 120 min [1]	Papp A→B at 120 min, 200 μg/mL [2]	Papp B→A at 120 min, 200 μg/mL [2]	other results
CC(C)c1cc2c(cc1O)[C@@]1(C)CCC(=O)C(C)(C)[C@@H]1CC2 [Hinokione]				Papp, Encapsulated RE, AB direction (Caco-2 cell monolayers [3]): no absorption; Papp, Non encapsulated RE, AB direction (Caco-2 cell monolayers [3]): no absorption; Papp B→A at 120 min, 200 μg/mL (in vitro): 13.6 ×10⁻⁶ cm/s
CC(C)c1cc2c(c(O)c1O)[C@@]1(C(=O)O)CCCC(C)(C)[C@@H]1CC2 [Carnosic acid]		127 ×10⁻⁶ cm/s	90.4 ×10⁻⁶ cm/s	Papp, Encapsulated RE, AB direction (Caco-2 cell monolayers [4]; [6]): no absorption
COc1c(O)cc2oc(-c3ccc(O)cc3)cc(=O)c2c1O [Hispidulin]	< 60 ×10⁻⁶ cm/s	9.05 ×10⁻⁶ cm/s	13.1 ×10⁻⁶ cm/s	
CC1(C)CC[C@]2(C(=O)O)CC[C@]3(C)C(=CC[C@@H]4[C@@]5(C)C[C@H](O)[C@H](O)C(C)(C)[C@@H]5CC[C@]43C)[C@@H]2C1 [Augustic acid]	< 60 ×10⁻⁶ cm/s	7.35 ×10⁻⁶ cm/s	7.93 ×10⁻⁶ cm/s	
C=C(C)[C@@H]1CC[C@]2(C(=O)O)CC[C@]3(C)[C@H](CC[C@@H]4[C@@]5(C)CC[C@H](O)C(C)(C)[C@@H]5CC[C@]43C)[C@@H]12 [Betulinic acid]			6.3 ×10⁻⁶ cm/s	detection in donor chamber, cells and receptor chamber (Caco-2 cell monolayers [4]; encapsulated formulation): detected both in the donor chamber and also inside the cells but was not detected in the receptor chamber; Papp, Non encapsulated RE, AB direction (Caco-2 cell monolayers [4]; [7]): not absorbed; retention by Caco-2 cells (Caco-2 cell monolayers [4]): partly retained by the Caco-2 cells
(9)-Shogaol [[9]-Shogaol]				retention by Caco-2 cells / transport to the receptor chamber (Caco-2 cell monolayers [4]; all samples, amounts below LOQ detected in cytoplasmic fractions): partly retained by Caco-2 cells without any transport to the receptor chamber
C=C(C)[C@@H]1CC[C@]2(C(=O)O)CC[C@]3(C)[C@H](CC[C@@H]4[C@@]5(C)CC[C@H](O)[C@@](C)(CO)[C@@H]5CC[C@]43C)[C@@H]12 [Anemosapogenin]	< 60 ×10⁻⁶ cm/s	3.27 ×10⁻⁶ cm/s	6.17 ×10⁻⁶ cm/s	
Cc1cc2c(cc(O)c1=O)[C@@]13CCCC(C)(C)[C@@H]1C[C@@H]2OC3 [Miltipolone]	< 60 ×10⁻⁶ cm/s	17.6 ×10⁻⁶ cm/s		Papp B→A at 120 min [2]: 0.168 ×10⁻⁶ cm/s; Papp, Non encapsulated RE, BA direction (Caco-2 cell monolayers [4]; free RE 200 μg/mL, basolateral to apical, 120 min, 37°C, mean of six replicates): not absorbed; also recorded: no absorption; Papp, Encapsulated RE, AB direction (Caco-2 cell monolayers [4]; [6]): no absorption
CC(C)c1cc(C=O)c2c(c1O)OC(=O)[C@@]21CCCC(C)(C)[C@@H]1C=O [Rosmadial]	< 60 ×10⁻⁶ cm/s	19 ×10⁻⁶ cm/s	15.9 ×10⁻⁶ cm/s	Papp A→B at 120 min [2]: 2.67 ×10⁻⁶ cm/s; Papp B→A at 120 min [2]: 12.4 ×10⁻⁶ cm/s
CC1CCC2(C(=O)O)CCC3(C)C(=CCC4C5(C)CCC(O)C(C)(C)C5CCC43C)C2C1(C)O (centres unmarked) [Benthamic acid]	< 60 ×10⁻⁶ cm/s	5.2 ×10⁻⁶ cm/s	7.03 ×10⁻⁶ cm/s	
COc1ccc(-c2cc(=O)c3c(O)cc(O)cc3o2)cc1O [Diosmetin]	< 60 ×10⁻⁶ cm/s	2.5 ×10⁻⁶ cm/s	4.13 ×10⁻⁶ cm/s	
COCCc1ccc(OCC(O)CNC(C)C)cc1 (centres unmarked) [metoprolol]				Papp value of the reference drug (Caco-2 cell monolayers [5]): 60 ×10⁻⁶ cm/s

Now from value to compound, other results behind:

Papp at 120 min [1]	Papp A→B at 120 min, 200 μg/mL [2]	Papp B→A at 120 min, 200 μg/mL [2]	Compound	other results
< 60 ×10⁻⁶ cm/s	33.3 ×10⁻⁶ cm/s	30.7 ×10⁻⁶ cm/s	COc1cc2oc(-c3ccc(O)cc3)cc(=O)c2c(O)c1OC [Cirsimaritin]	
< 60 ×10⁻⁶ cm/s	55.1 ×10⁻⁶ cm/s	12.1 ×10⁻⁶ cm/s	CC(C)c1cc2c(c(O)c1O)C13CCCC(C)(C)C1C(OC3=O)C2O (centres unmarked) [Epirosmanol]	Papp A→B at 120 min [2]: 1.92 ×10⁻⁶ cm/s; Papp B→A at 120 min [2]: 2.63 ×10⁻⁶ cm/s
> 60 ×10⁻⁶ cm/s	104 ×10⁻⁶ cm/s	9.23 ×10⁻⁶ cm/s	CC(C)c1cc2c(c(O)c1O)[C@@]13CCCC(C)(C)[C@@H]1[C@H](O)[C@@H]2OC3=O [Epiisorosmanol]	Papp A→B at 120 min [2]: 8.18 ×10⁻⁶ cm/s; Papp B→A at 120 min [2]: 13 ×10⁻⁶ cm/s
< 60 ×10⁻⁶ cm/s	18.5 ×10⁻⁶ cm/s	27.7 ×10⁻⁶ cm/s	COc1c(C(C)C)cc2c(c1O)[C@@]1(C(=O)O)CCCC(C)(C)[C@@H]1CC2 [12-Methoxycarnosic acid]	Papp, Encapsulated RE, AB direction (Caco-2 cell monolayers [4]; [6]): no absorption
< 60 ×10⁻⁶ cm/s	7.2 ×10⁻⁶ cm/s	2.45 ×10⁻⁶ cm/s	C=C1CCC2(C(=O)O)CCC3(C)C(=CCC4C5(C)CCC(O)C(C)(C)C5CCC43C)C2C1C (centres unmarked) [Micromeric acid]	
< 60 ×10⁻⁶ cm/s	14.6 ×10⁻⁶ cm/s	13.5 ×10⁻⁶ cm/s	CC(C)c1cc2c(c(O)c1O)[C@@]13CCCC(C)(C)[C@@H]1C[C@@H]2OC3=O [Carnosol]	Papp A→B at 120 min [2]: 0.0403 ×10⁻⁶ cm/s; Papp B→A at 120 min [2]: 0.261 ×10⁻⁶ cm/s
< 60 ×10⁻⁶ cm/s	14.9 ×10⁻⁶ cm/s	16.2 ×10⁻⁶ cm/s	COc1cc(O)c2c(=O)cc(-c3ccc(O)cc3)oc2c1 [Genkwanin]	
< 60 ×10⁻⁶ cm/s	2.43 ×10⁻⁶ cm/s	2.68 ×10⁻⁶ cm/s	CC(C)c1cc2c(c(O)c1O)C(=O)C1CCCC(C)(C)C1CC2 (centres unmarked) [Rosmaridiphenol]	Papp, Non encapsulated RE, AB direction (Caco-2 cell monolayers [4]; [7]): E-06 range; Papp, Encapsulated RE, AB direction (Caco-2 cell monolayers [4]; [6]): no absorption
		7.2 ×10⁻⁶ cm/s	C[C@H]1[C@H](C)CC[C@]2(C(=O)O)CC[C@]3(C)C(=CC[C@@H]4[C@@]5(C)CC[C@H](O)C(C)(C)[C@@H]5CC[C@]43C)[C@H]12 [Ursolic acid]	retention by Caco-2 cells (Caco-2 cell monolayers [4]): partly retained by the Caco-2 cells
< 60 ×10⁻⁶ cm/s	45.9 ×10⁻⁶ cm/s	44.2 ×10⁻⁶ cm/s	CC(C)c1cc2c(c(O)c1O)[C@@]13CCCC(C)(C)[C@@H]1[C@H](OC3=O)[C@H]2O [Rosmanol]	Papp A→B at 120 min [2]: 29.1 ×10⁻⁶ cm/s; Papp B→A at 120 min [2]: 33.3 ×10⁻⁶ cm/s
